Results: ChEMBL document CHEMBL4130472, “Synthesis of naphthazarin derivatives and identification of novel thioredoxin reductase inhibitor as potential anticancer agent” (Eur J Med Chem, 2017)
pIC50: −log10 of the molar value.

How the values were obtained:
HL-60 [1] = assay: Cytotoxicity in human HL60 cells assessed as cell viability at 20 uM incubated for 48 hrs by MTT assay; format: functional; conditions: HL-60, 48 h, read-out: Activity
HL-60 [2] = assay: Cytotoxicity in human HL60 cells assessed as reduction in cell viability incubated for 72 hrs by MTT assay; format: functional, cell-based; conditions: HL-60, 72 h
HL-60 [3] = assay: Cytotoxicity in human HL60 cells assessed as reduction in cell viability incubated for 48 hrs by MTT assay; format: functional, cell-based; conditions: HL-60, 48 h

Row | Structure (SMILES) | viability at 20 µM (HL-60 [1]) [%] | pIC50 (HL-60 [2]) | pIC50 (HL-60 [3])
1 | CCC(C)NC1=CC(=O)c2c(O)ccc(O)c2C1=O (stereo not given) | 57 |  | 
2 | O=C1C=C(NCc2ccccc2)C(=O)c2c(O)ccc(O)c21 | 54.6 |  | 
3 | CCNC1=CC(=O)c2c(O)ccc(O)c2C1=O | 56.4 |  | 
4 | CCCNC1=CC(=O)c2c(O)ccc(O)c2C1=O | 59.4 |  | 
5 | O=C1C=CC(=O)c2c(O)ccc(O)c21 [NAPHTHAZALIN] | 0 | 6.10 | 6.03
6 | O=C1C=C(NCCO)C(=O)c2c(O)ccc(O)c21 | 50.3 |  | 
7 | O=C1C=C(Nc2ccccc2)C(=O)c2c(O)ccc(O)c21 | 59.7 |  | 
8 | CC(C)CCNC1=CC(=O)c2c(O)ccc(O)c2C1=O | 54.3 |  | 
